Consider 10 compounds from patent US20240189276A1, “COMPOSITIONS COMPRISING LACTATE DEHYDROGENASE-A INHIBITORS AND METHODS OF PRODUCTION AND USE THEREOF” (Southwestern Oklahoma State University, priority 2022, published 2024).

One data set concerns the target LDHA (Homo sapiens, UniProt P00338). The settings on record: literature; cited from earlier work.
Another data set concerns cells. Particulars: literature; cited from earlier work.
The test system of another data set is Snu398 cells. Particulars: literature; read-out: cell viability EC50 in Snu398 cells; cited from earlier work.
A further data set concerns cancer cell growth. The settings on record: literature, hypoxic conditions; read-out: IC50, inhibition of cancer cell growth; cited from earlier work.
For data set [1] the following is noted: literature; cited from earlier work.
The next data set concerns PANC-1 cells. Description: Cytotoxicity (viability/proliferation/necrosis) assay, PANC-1. The format is cell-based. Particulars: Homo sapiens; PANC-1, 48 hr, normoxic; read-out: Cytotoxicity IC50 ± SD, PANC-1.
Data set [2] relates to FC1199 pancreatic cancer cells. The experiment in a line: Cytotoxicity (viability/proliferation/necrosis) assay, FC1199. In kind it is cell-based. Particulars: Mus musculus, Pancreatic cancer cell; FC-1199, 48 hr; read-out: Cytotoxicity IC50 ± SD, FC-1199.
Experimental: (§1) Cytotoxicity study: Anticancer potency was investigated using a fluorescence-based high throughput confocal microscopy cell viability/proliferation/cell death assay. […] Selected compounds were also tested in the FC1199 pancreatic cancer line from the KPC-1 genetically engineered mouse model. Compounds were also tested in hTERT immortalized normal pancreatic (HPNE) cell lines to rule out nonspecific cytotoxicity of compounds.
(§2) Cell lines. The human PANC-1, MiaPaCa-2, and HPNE cell lines were obtained from American Type Culture Collection (ATCC, Manassas, VA, USA). Mouse pancreatic cancer FC1199 cells were obtained from the KPC-1 genetically engineered mouse model that has mutated K-Ras, metastasizes to the liver, and forms desmoplasia.
(§3) Cytotoxicity assay. Cytotoxicity was assessed using the viability/proliferation/necrosis assay. […] Confocal images were acquired using the Operetta High Content Imaging System (PerkinElmer). […] SYTOX Green will be detected using an excitation wavelength of 500-520 nm and an emission wavelength of 520-530 nm. Brightfield images will also be acquired for each field. […] Cell counts were summed over the five fields for each well, and the percentage of viable cells was calculated relative to the untreated control.
A short description of data set [3]: Cytotoxicity assay in hTERT immortalized normal pancreatic cells. The format is cell-based. The settings on record: human, HPNE cells (hTERT immortalized normal pancreatic cells), read-out: Cytotoxicity IC50 ± SD, HPNE Normal.
Experimental: as §1, §2, §3
Another data set deals with hLDH5 (LDHA) (Homo sapiens, UniProt P00338). The experiment in a line: Biochemical LDHA (hLDH5) inhibition assay, NADH fluorescence. The settings on record: read-out: LDHA inhibition IC50 ± SD.
The test system of data set [4] is HeLa human cervical carcinoma cells. The settings on record: literature; normoxic conditions stated for NHI-2; cited from earlier work.
For the next data set, the system named is PANC-1. Particulars: literature, normoxic conditions; read-out: viability IC50 in PANC-1; cited from earlier work.
The subject of another data set is PDAC cells. Particulars: literature; cited from earlier work.
Another data set concerns MIA PaCa-2. Particulars: literature; read-out: cell viability IC50 in MIA PaCa-2; cited from earlier work.
Data set [5] deals with human pancreatic and lymphoma cancer xenografts. Particulars: literature; cited from earlier work.

Experimental for PANC-1 cells: as §1, §2, §3
Experimental for hLDH5 (LDHA): Biochemical LDHA inhibition assay: The hLDH5 (LDHA) enzymatic activity was measured by fluorescence (excitation@ 340 nm, emission@ 460 nm) to monitor the rate of conversion of NADH to NAD+at 37° C.
The hLDH5 (LDHA) inhibition assay was performed by measuring the fluorescence (excitation@ 340 nm, emission@ 460 nm) and monitoring the rate of conversion of NADH to NAD+at 37° C. as reported. […] The stock solution of compounds was prepared in DMSO. […] The experiment involved adding a solution of compounds in DMSO to the enzyme and NADH in a phosphate buffer. The assay plate was incubated at 25° C. for 10 minutes, and a baseline read was taken, after which pyruvate was added. The fluorescence was read for 5 minutes every 30 seconds in a microplate reader. The slope of a suitable linear timeframe was calculated with the curve bottom assigned to the initial 5-second recording before adding pyruvate (background rate) and the curve top to the negative (DMSO only) control wells rate. IC50 values were determined from dose-response curves using four-parameter logistic non-linear regression analysis in Prism Software v9.0. The assays were performed in triplicates and the data is presented as mean±SD (n=3).

As for `Cc1nc2ccc(NC(=O)CCNC(=O)CCCc3ccc(CC(C(=O)O)C(=O)O)cc3)cc2s1` [AZ33], at LDHA, the concentration for half-maximal inhibition (IC50) is 0.5 µM. The “cellular activity” value in the data set on cells was “inactive in cells”.

On to `COc1ncc(-c2ccc3c(Nc4cc(Oc5cc(F)cc(F)c5)cc(C(=O)O)c4)c(S(=O)(=O)NC4CC4)cnc3c2)c(OC)n1` [GSK2837808A], for which the concentration giving a half-maximal response (EC50) in the data set with Snu398 cells is 2.9 µM. In addition, in the data set with cancer cell growth, the IC50 was 2.97 µM. Moreover, the “pharmacokinetics / clearance in vivo” value in [1] is “poor pharmacokinetics in vivo”.

Regarding `Cn1ccnc1C(=O)c1ccc(NC(=O)CC(C(=O)O)c2ccc(C(F)(F)F)cc2)cc1` (centres unmarked) [Compound 5], the IC50 was 43.3 ± 3.98 µM with PANC-1 cells and 20.8 ± 2.97 µM in data set [2]. In data set [3], the IC50 at 48 hr is over 50 µM.

Regarding `O=C(CC(C(=O)O)c1ccc(C(F)(F)F)cc1)Nc1ccc(C(=O)N2CCc3ccccc32)cc1` (centres unmarked) [Compound 19], the half-inhibitory concentration (IC50) stood at 43.1 ± 4.87 µM in the data set on PANC-1 cells and 56.5 µM in data set [2]. Moreover, in data set [3], the 50% inhibitory concentration (IC50) at 48 hr was over 50 µM.

Turning to `COC(=O)C(CC(=O)Nc1ccc(F)cn1)c1ccc(C(F)(F)F)cc1` (centres unmarked) [Compound 23], the concentration for half-maximal inhibition (IC50) at hLDH5 (LDHA) is 5.58 ± 1.05 µM; with PANC-1 cells it was 22.3 ± 2 µM; in data set [2], 13.3 ± 0.9 µM. Besides, the IC50 at 48 hr in [3] was over 50 µM.

Turning to `COC(=O)C(CC(=O)Nc1ccc(C(=O)c2nccn2C)cc1)c1ccc(C(F)(F)F)cc1` (centres unmarked) [Compound 4], the IC50 in the data set with PANC-1 cells is 23.9 ± 1.8 µM; in [2], 12.1 ± 1.2 µM. The half-maximal inhibitory concentration (IC50) at 48 hr in data set [3] stood at 49.5 ± 7.3 µM.

`COC(=O)c1cc2c(C(F)(F)F)cc(-c3ccccc3)cc2n1O` [NHI-2]: the concentration for half-maximal inhibition (IC50) in data set [4] is 33.4 µM; in the data set on PANC-1, 22.2 µM. Further, in the data set with PDAC cells, the “apoptosis and gemcitabine synergy” value is “induced apoptosis, and synergistically enhanced gemcitabine activity in PDAC cells”.

With GNE-140, the figures for the 50% inhibitory concentration (IC50) in the data set on MIA PaCa-2 and in the data set with cancer cell growth were 2.05 µM and 2 µM, respectively. Also, the “pharmacokinetics / clearance in vivo” value in data set [1] was “high clearance”.

On to `CCCc1c(O)c(O)c(C(=O)O)c2cc(Cc3ccccc3)c(C)cc12` [FX-11], for which the 50% inhibitory concentration (IC50) in data set [4] was 23.3 µM. In addition, the “progression of cancer xenografts” value in data set [5] was “inhibit the progression of human pancreatic and lymphoma cancer xenografts”.

As for `COC(=O)C(CC(=O)Nc1ccc(C(=O)N2CCc3ccccc32)cc1)c1ccc(C(F)(F)F)cc1` (centres unmarked) [Compound 17], the IC50 in the data set on PANC-1 cells is 24.2 ± 1.08 µM; in data set [2], 73.4 ± 6.8 µM. Moreover, in [3], the IC50 at 48 hr turned out to be 50.7 ± 3.6 µM.

As a reminder, the IC50 is the concentration at which inhibition is half-maximal. The EC50 is the midpoint of the concentration-response curve.
